Patent publication US7563787B2, “Substituted pyrazole compounds” (Miikana Therapeutics, Inc., priority 2005, dated 2009)

Columns and labels:
HCT-116 cell growth = assay: Whole Cell Cytotoxicity Assay: Sulforhodamine B; format: cell-based, Human; conditions: Homo sapiens, HCT-116; 100 μM compound; 96 hours; SRB staining
Experimental: Human tumor-derived cell lines, HCT116 or MCF7 (ATCC) were plated in a 96 well plate in DMEM containing 10% fetal bovine serum and 2 mM L-glutamine at a density of 500 HCT116 cells or 1,000 MCF7 cells per well and incubated at 37° C., 5% CO2, for 24 hours prior to the addition of experimental compounds. Compounds were added using the dilution series indicated to duplicate plates and the cells were incubated in media plus compound for 96 hours. An additional plate was fixed in 10% TCA at the time of the addition of compound to provide a measurement of the cell population at time zero, the time of drug addition. Following the 96 hour incubation, cells were fixed in situ by gently aspirating off the culture media and then adding 50 ul of ice cold 10% TCA per well and incubation at 4° C. for 60 minutes. The plates were washed with tap water five times and allowed to air dry for 5 minute. 50 ul of a 0.4% (w/v) Sulforhodamine B solution in 1% (v/v) acetic acid was added per well and the cells were incubated for 30 minutes at room temperature. Following staining, plates were washed four times with 1% acetic acid to remove any unbound dye and then allowed to air dry for 5 minutes. The stain was solubilized with 100 ul of 10 mM Tris pH 10.5 per well and placed on an orbital rotator for 5 minutes. The absorbance was read at 570 nm. Percentage growth was calculated using the absorbance readings from the time zero plate (Tz) and the dilution series plate […] which included a column of cells grown in media without compound as a control (C) using the formulas: [(Ti−Tz)/(C−Tz)]×100 for concentrations for which Ti>/=Tz [(Ti−Tz)/Tz]×100 for concentrations for which Ti<Tz.
Three dose response parameters were calculated for each experimental agent. Growth inhibition of 50% (GI50) was calculated from [(Ti−Tz)/(C−Tz)]×100=50, which was the drug concentration resulting in a 50% reduction in the net protein increase (as measured by SRB staining) in control cells during the drug incubation. The drug concentration resulting in total growth inhibition (TGI) was calculated from Ti=Tz. The LC50 (concentration of drug resulting in a 50% reduction in the measured protein at the end of the drug treatment as compared to that at the beginning) indicating a net loss of cells following treatment was calculated from [(Ti−Tz)/Tz]×100=−50. Values are calculated for each of these three parameters if the level of activity was reached; however, if the effect was not reached or was exceeded, the value for that parameter is expressed as greater or less than the maximum or minimum concentration tested.

SRC = SRC (Homo sapiens, UniProt P12931); assay: Kinase Selectivity Assay; format: biochemical; design: full-length enzymes or catalytically active fragments; purchased Invitrogen; conditions: read-out: Percent Inhibition at 1 μM
Experimental: (§1) Compounds were assayed for inhibitory activity against a panel of different kinase enzymes at a concentration of 1 μM. Where appropriate, full-length enzymes or catalytically active fragments, with N-terminal or C-terminal His- or GST-tags, were used (Invitrogen, Carlsbad, Calif.). Test compounds were initially diluted to 100× test concentration in 100% DMSO. This 100× concentration was then diluted to a 4× working concentration in Kinase Buffer (50 mM HEPES pH 7.5, 0.01% Brij-35, 10 mM MgCl2, 1 mM EGTA) and 2.5 μL was then added to a low volume NBS, 384-well plate (Corning, Corning, N.Y.). Five μL of a 2× peptide/kinase mixture (Invitrogen, Carlsbad, Calif.), as appropriate (listed in Table 3), was then added and the reaction was then initiated by addition of 2.5 μL of a 4× working concentration of ATP in Kinase Buffer.

FLT3 D835Y = target: T1, FLT3 D835Y (Homo sapiens, UniProt P36888, D835Y); assay: Kinase Selectivity Assay; format: biochemical; conditions: read-out: Percent Inhibition at 1 μM; further: ATP at apparent Km or 100 µM
T1 construct: full-length enzymes or catalytically active fragments; purchased Invitrogen
Experimental: as §1

FYN = target: T2, FYN (Homo sapiens, UniProt P06241); assay: Kinase Selectivity Assay; format: biochemical; conditions: read-out: Percent Inhibition at 1 μM; further: ATP at apparent Km or 100 µM
T2 construct: full-length enzymes or catalytically active fragments; purchased Invitrogen
Experimental: as §1

GSK3B (GSK3 beta) = target: T3, GSK3B (GSK3 beta) (Homo sapiens, UniProt P49841); assay: Kinase Selectivity Assay; format: biochemical; conditions: read-out: Percent Inhibition at 1 μM; further: ATP at apparent Km or 100 µM
T3 construct: full-length enzymes or catalytically active fragments; purchased Invitrogen
Experimental: as §1

JAK2 = target: T4, JAK2 (Homo sapiens, UniProt O60674); assay: Kinase Selectivity Assay; format: biochemical; conditions: read-out: Percent Inhibition at 1 μM; further: ATP at apparent Km or 100 µM
T4 construct: full-length enzymes or catalytically active fragments; purchased Invitrogen
Experimental: as §1

TBK1 = target: T5, TBK1 (Homo sapiens, UniProt Q9UHD2); assay: Kinase Selectivity Assay; format: biochemical; conditions: read-out: Percent Inhibition at 1 μM; further: ATP at apparent Km or 100 µM
T5 construct: purchased Invitrogen, Carlsbad, Calif
Experimental: as §1

ROS1 = target: T6, ROS1 (Homo sapiens, UniProt P08922); assay: Kinase Selectivity Assay; format: biochemical; conditions: read-out: Percent Inhibition at 1 μM; further: ATP at apparent Km or 100 µM
T6 construct: full-length enzymes or catalytically active fragments; purchased Invitrogen
Experimental: as §1

KIT T670I = target: T7, KIT T670I (Homo sapiens, UniProt P10721, T670I); assay: Kinase Selectivity Assay; format: biochemical; conditions: read-out: Percent Inhibition at 1 μM; further: ATP at apparent Km or 100 µM
T7 construct: full-length enzymes or catalytically active fragments; purchased Invitrogen
Experimental: as §1

BLK = target: T8, BLK (Homo sapiens, UniProt P51451); assay: Kinase Selectivity Assay; format: biochemical; conditions: read-out: Percent Inhibition at 1 μM; further: ATP at apparent Km or 100 µM
T8 construct: purchased Invitrogen, Carlsbad, Calif
Experimental: as §1

FLT3 = target: T9, FLT3 (Homo sapiens, UniProt P36888); assay: Kinase Selectivity Assay; format: biochemical; conditions: read-out: Percent Inhibition at 1 μM; further: ATP at apparent Km or 100 µM
T9 construct: full-length enzymes or catalytically active fragments; purchased Invitrogen
Experimental: as §1

RET = target: T10, RET (Homo sapiens, UniProt P07949); assay: Kinase Selectivity Assay; format: biochemical; conditions: read-out: Percent Inhibition at 1 μM; further: ATP at apparent Km or 100 µM
T10 construct: full-length enzymes or catalytically active fragments; purchased Invitrogen
Experimental: as §1

PDGFRA T674I = target: T11, PDGFRA T674I (Homo sapiens, UniProt P16234, T674I); assay: Kinase Selectivity Assay; format: biochemical; conditions: read-out: Percent Inhibition at 1 μM; further: ATP at apparent Km or 100 µM
T11 construct: full-length enzymes or catalytically active fragments; purchased Invitrogen
Experimental: as §1

GSK3A (GSK3 alpha) = target: T12, GSK3A (GSK3 alpha) (Homo sapiens, UniProt P49840); assay: Kinase Selectivity Assay; format: biochemical; conditions: read-out: Percent Inhibition at 1 μM; further: ATP at apparent Km or 100 µM
T12 construct: full-length enzymes or catalytically active fragments; purchased Invitrogen
Experimental: as §1

KIT = target: T13, KIT (Homo sapiens, UniProt P10721); assay: Kinase Selectivity Assay; format: biochemical; conditions: read-out: Percent Inhibition at 1 μM; further: ATP at apparent Km or 100 µM
T13 construct: full-length enzymes or catalytically active fragments; purchased Invitrogen
Experimental: as §1

DAPK3 (ZIPK) = target: T14, DAPK3 (ZIPK) (Homo sapiens, UniProt O43293); assay: Kinase Selectivity Assay; format: biochemical; conditions: read-out: Percent Inhibition at 1 μM; further: ATP at apparent Km or 100 µM
T14 construct: purchased Invitrogen, Carlsbad, Calif
Experimental: as §1

YES1 = target: T15, YES1 (Homo sapiens, UniProt P07947); assay: Kinase Selectivity Assay; format: biochemical; conditions: read-out: Percent Inhibition at 1 μM; further: ATP at apparent Km or 100 µM
T15 construct: purchased Invitrogen, Carlsbad, Calif
Experimental: as §1

FLT1 (VEGFR1) = target: T16, FLT1 (VEGFR1) (Homo sapiens, UniProt P17948); assay: Kinase Selectivity Assay; format: biochemical; conditions: read-out: Percent Inhibition at 1 μM; further: ATP at apparent Km or 100 µM
T16 construct: full-length enzymes or catalytically active fragments; purchased Invitrogen
Experimental: as §1

BMX = target: T17, BMX (Homo sapiens, UniProt P51813); assay: Kinase Selectivity Assay; format: biochemical; conditions: read-out: Percent Inhibition at 1 μM; further: ATP at apparent Km or 100 µM
T17 construct: purchased Invitrogen, Carlsbad, Calif
Experimental: as §1

AURKB (Aurora B) = target: T18, AURKB (Aurora B) (Homo sapiens, UniProt Q96GD4); assay: Kinase Selectivity Assay; format: biochemical; conditions: read-out: Percent Inhibition at 1 μM; further: ATP at apparent Km or 100 µM
T18 construct: purchased Invitrogen, Carlsbad, Calif
Experimental: as §1

PDGFRA (PDGFR alpha) = target: T19, PDGFRA (PDGFR alpha) (Homo sapiens, UniProt P16234); assay: Kinase Selectivity Assay; format: biochemical; conditions: read-out: Percent Inhibition at 1 μM; further: ATP at apparent Km or 100 µM
T19 construct: full-length enzymes or catalytically active fragments; purchased Invitrogen
Experimental: as §1

MAP2K1 (MEK1) = target: T20, MAP2K1 (MEK1) (Homo sapiens, UniProt Q02750); assay: Kinase Selectivity Assay; format: biochemical; conditions: read-out: Percent Inhibition at 1 μM; further: ATP at apparent Km or 100 µM
T20 construct: full-length enzymes or catalytically active fragments; purchased Invitrogen
Experimental: as §1

T13 sequence (P10721 26-976): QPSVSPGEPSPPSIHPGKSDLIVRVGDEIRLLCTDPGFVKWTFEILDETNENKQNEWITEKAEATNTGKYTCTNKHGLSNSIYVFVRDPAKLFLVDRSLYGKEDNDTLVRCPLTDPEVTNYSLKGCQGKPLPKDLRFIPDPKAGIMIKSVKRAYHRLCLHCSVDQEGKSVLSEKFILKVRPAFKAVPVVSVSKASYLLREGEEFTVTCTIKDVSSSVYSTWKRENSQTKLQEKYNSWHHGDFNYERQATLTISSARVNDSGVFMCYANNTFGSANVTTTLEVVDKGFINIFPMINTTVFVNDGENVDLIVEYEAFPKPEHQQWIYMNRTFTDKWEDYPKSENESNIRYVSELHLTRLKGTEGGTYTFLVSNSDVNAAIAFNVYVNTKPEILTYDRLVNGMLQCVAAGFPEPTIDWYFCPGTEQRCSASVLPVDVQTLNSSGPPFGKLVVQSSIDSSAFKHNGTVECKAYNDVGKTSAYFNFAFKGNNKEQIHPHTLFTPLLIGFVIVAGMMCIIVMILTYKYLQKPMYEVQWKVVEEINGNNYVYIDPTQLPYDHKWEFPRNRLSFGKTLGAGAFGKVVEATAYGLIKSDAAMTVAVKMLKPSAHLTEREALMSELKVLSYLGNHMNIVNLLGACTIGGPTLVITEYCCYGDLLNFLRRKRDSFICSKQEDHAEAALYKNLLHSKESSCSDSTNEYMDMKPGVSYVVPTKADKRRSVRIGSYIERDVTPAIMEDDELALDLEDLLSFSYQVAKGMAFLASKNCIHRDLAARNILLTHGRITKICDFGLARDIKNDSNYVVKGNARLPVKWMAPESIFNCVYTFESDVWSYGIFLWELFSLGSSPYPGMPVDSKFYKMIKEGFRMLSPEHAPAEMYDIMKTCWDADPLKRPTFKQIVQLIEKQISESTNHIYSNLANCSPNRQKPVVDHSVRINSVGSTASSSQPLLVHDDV
T2 sequence (P06241 whole entry, the tested form may be a part): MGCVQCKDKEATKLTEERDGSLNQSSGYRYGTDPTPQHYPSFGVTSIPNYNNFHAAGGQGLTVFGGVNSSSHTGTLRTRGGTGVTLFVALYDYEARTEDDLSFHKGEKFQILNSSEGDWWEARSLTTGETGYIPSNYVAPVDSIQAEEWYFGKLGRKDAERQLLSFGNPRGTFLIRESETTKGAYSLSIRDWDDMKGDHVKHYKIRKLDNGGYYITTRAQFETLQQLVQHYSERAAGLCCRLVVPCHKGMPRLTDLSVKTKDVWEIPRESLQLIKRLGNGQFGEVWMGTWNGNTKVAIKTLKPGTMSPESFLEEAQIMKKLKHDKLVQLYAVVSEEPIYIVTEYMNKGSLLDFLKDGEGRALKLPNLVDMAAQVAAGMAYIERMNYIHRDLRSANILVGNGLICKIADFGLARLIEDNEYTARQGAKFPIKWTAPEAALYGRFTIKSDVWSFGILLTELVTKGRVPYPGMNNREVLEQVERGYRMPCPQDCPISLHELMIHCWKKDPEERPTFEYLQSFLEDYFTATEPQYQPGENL
T19 sequence (P16234 24-1089): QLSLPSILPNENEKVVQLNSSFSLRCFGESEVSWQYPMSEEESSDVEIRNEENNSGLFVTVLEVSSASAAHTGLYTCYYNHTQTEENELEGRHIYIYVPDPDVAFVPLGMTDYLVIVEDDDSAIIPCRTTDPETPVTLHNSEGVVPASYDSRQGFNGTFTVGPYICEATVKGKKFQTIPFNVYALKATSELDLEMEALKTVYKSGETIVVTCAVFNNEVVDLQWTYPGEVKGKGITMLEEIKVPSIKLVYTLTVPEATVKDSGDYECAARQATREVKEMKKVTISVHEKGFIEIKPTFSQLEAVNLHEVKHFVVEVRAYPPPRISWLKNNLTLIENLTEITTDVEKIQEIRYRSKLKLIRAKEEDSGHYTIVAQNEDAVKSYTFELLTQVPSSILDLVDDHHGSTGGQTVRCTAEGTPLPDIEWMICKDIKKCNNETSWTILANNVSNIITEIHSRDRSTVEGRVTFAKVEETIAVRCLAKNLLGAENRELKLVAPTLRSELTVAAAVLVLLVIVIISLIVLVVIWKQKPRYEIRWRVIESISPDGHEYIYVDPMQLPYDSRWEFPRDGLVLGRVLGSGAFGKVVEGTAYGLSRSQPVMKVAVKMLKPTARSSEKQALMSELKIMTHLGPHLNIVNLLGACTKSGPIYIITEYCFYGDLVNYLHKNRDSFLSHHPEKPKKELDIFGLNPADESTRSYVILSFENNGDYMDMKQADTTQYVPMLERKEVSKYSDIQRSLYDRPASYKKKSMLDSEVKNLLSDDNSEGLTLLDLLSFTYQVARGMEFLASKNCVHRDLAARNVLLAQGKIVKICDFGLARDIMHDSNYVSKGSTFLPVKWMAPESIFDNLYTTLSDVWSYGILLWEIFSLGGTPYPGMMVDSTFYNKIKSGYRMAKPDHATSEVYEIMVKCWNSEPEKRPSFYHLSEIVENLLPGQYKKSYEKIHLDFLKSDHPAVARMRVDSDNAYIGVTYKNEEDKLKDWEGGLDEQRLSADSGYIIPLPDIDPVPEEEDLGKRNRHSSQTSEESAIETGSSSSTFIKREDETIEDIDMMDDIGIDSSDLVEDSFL
T12 sequence (P49840 whole entry, the tested form may be a part): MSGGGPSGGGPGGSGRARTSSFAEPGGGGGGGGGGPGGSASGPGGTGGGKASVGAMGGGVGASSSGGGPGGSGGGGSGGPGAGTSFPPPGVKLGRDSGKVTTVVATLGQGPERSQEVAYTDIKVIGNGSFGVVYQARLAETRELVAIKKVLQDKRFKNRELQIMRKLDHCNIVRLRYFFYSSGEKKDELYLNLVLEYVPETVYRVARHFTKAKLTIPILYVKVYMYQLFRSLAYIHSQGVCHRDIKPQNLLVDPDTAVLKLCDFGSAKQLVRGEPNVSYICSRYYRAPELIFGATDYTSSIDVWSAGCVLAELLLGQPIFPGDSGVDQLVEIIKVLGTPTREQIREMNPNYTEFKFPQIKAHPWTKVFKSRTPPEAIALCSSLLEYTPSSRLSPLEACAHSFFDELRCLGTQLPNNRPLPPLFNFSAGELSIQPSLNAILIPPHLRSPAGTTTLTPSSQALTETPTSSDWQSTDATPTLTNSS
T5 sequence (Q9UHD2 whole entry): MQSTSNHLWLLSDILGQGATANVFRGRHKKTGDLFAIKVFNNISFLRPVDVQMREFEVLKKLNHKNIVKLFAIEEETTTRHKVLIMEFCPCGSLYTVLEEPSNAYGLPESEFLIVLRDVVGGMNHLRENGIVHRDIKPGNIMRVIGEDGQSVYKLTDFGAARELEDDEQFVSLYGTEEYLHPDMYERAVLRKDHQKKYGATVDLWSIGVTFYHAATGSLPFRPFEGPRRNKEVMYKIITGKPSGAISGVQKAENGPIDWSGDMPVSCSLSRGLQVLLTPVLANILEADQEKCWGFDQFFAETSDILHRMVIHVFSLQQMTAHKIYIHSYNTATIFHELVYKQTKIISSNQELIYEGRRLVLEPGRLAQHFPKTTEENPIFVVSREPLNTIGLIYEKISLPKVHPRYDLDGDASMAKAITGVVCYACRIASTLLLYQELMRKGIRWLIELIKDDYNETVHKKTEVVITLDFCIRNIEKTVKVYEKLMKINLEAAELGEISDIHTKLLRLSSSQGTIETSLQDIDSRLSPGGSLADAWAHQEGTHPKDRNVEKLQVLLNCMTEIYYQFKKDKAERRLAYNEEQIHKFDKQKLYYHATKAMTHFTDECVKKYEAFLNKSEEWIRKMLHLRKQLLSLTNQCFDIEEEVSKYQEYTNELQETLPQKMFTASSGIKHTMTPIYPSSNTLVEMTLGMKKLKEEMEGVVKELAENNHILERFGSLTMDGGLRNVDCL
T8 sequence (P51451 whole entry): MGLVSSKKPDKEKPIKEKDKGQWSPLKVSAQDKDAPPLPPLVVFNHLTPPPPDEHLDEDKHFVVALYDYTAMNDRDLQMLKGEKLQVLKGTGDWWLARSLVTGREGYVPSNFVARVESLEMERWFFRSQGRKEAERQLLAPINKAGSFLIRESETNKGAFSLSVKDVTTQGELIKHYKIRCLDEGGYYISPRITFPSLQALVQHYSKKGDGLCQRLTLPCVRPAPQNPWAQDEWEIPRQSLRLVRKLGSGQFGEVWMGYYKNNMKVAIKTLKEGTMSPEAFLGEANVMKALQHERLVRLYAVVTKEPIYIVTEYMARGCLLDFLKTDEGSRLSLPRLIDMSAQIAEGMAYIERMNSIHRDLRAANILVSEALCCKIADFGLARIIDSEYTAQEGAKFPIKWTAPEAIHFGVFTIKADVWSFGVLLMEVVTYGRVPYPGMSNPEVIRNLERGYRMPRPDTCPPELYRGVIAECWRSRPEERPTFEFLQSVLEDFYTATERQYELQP
T14 sequence (O43293 whole entry): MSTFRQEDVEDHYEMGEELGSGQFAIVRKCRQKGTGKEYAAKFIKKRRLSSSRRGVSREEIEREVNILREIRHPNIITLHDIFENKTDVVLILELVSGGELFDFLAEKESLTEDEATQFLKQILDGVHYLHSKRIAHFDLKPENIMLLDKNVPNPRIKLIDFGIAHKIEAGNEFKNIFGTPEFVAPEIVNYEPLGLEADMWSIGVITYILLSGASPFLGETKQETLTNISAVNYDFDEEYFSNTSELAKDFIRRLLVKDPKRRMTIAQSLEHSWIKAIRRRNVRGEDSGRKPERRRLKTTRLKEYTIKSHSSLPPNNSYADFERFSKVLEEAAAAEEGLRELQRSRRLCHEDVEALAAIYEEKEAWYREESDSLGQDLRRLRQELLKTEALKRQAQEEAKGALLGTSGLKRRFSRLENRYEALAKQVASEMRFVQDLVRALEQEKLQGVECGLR
T7 sequence (P10721 26-976 T670I): as the sequence (P10721 26-976) above, with T645I counted along it
T11 sequence (P16234 24-1089 T674I): as the sequence (P16234 24-1089) above, with T651I counted along it

Compound `Cc1cc(Nc2nc(/C=C/c3ccccc3)nc(N3CCN(C)CC3)c2N)[nH]n1` [Example 10, 6-(4-methylpiperazin-1-yl)-N-(3-methyl-1H-pyrazol-5-yl)-2-[(E)-2-phenylvinyl]pyrimidin-4,5-diamine] has an inhibition at 100 µM (HCT-116 cell growth) of 99%, an inhibition at 1 µM (SRC) of 85% and an inhibition at 1 µM (FLT3 D835Y) of 80%. It also gave an inhibition at 1 µM (FYN) of 50%, an inhibition at 1 µM (GSK3B (GSK3 beta)) of 26% and an inhibition at 1 µM (JAK2) of 61%. For the same compound, the inhibition at 1 µM (TBK1) was 73%, the inhibition at 1 µM (ROS1) was 54% and the inhibition at 1 µM (KIT T670I) was 44%. It also gave an inhibition at 1 µM (BLK) of 67%, an inhibition at 1 µM (FLT3) of 93% and an inhibition at 1 µM (RET) of 95%. It also gave an inhibition at 1 µM (PDGFRA T674I) of 65%, an inhibition at 1 µM (GSK3A (GSK3 alpha)) of 38% and an inhibition at 1 µM (KIT) of 39%. It also gave an inhibition at 1 µM (DAPK3 (ZIPK)) of 93%, an inhibition at 1 µM (YES1) of 80% and an inhibition at 1 µM (FLT1 (VEGFR1)) of 25%. For the same compound, the inhibition at 1 µM (BMX) was 19%, the inhibition at 1 µM (AURKB (Aurora B)) was 37% and the inhibition at 1 µM (PDGFRA (PDGFR alpha)) was 58%. For the same compound, the inhibition at 1 µM (MAP2K1 (MEK1)) was 23%.

`Cc1cc(Nc2cc(N3CCN(C)CC3)nc(/C=C/c3ccccc3)n2)n[nH]1` [Example 31, 6-(4-methylpiperazin-1-yl)-N-(3-methyl-1H-pyrazol-5-yl)-2-[(E)-2-phenylvinyl]pyrimidin-4-amine] gave an inhibition at 100 µM (HCT-116 cell growth) of 99%, an inhibition at 1 µM (SRC) of 96% and an inhibition at 1 µM (FLT3 D835Y) of 98%. It also gave an inhibition at 1 µM (FYN) of 89%, an inhibition at 1 µM (GSK3B (GSK3 beta)) of 28% and an inhibition at 1 µM (JAK2) of 91%. The inhibition at 1 µM (TBK1) was 80%, the inhibition at 1 µM (ROS1) was 65% and the inhibition at 1 µM (KIT T670I) was 79%. For the same compound, the inhibition at 1 µM (BLK) was 90%, the inhibition at 1 µM (FLT3) was 98% and the inhibition at 1 µM (RET) was 98%. For the same compound, the inhibition at 1 µM (PDGFRA T674I) was 88%, the inhibition at 1 µM (GSK3A (GSK3 alpha)) was 36% and the inhibition at 1 µM (KIT) was 75%. It also gave an inhibition at 1 µM (DAPK3 (ZIPK)) of 68%, an inhibition at 1 µM (YES1) of 88% and an inhibition at 1 µM (FLT1 (VEGFR1)) of 53%. For the same compound, the inhibition at 1 µM (BMX) was 61%, the inhibition at 1 µM (AURKB (Aurora B)) was 75% and the inhibition at 1 µM (PDGFRA (PDGFR alpha)) was 83%. The inhibition at 1 µM (MAP2K1 (MEK1)) was 3%.
